What all share (format): cell-based
Series [1] deals with human hair dermal papilla cells. Kind of series: MTT assay, cell viability and proliferation in human hair dermal papilla cells. The method, then: Human hair dermal papilla cells were purchased from PromoCell GmbH (Heidelberg, Germany). The human hair dermal papilla cells were cultured in an incubator at 37° C., 5% CO2 using HFDPC medium (PromoCell, Germany) with fetal bovine serum (FBS) and Dulbecco's modified Eagle's medium (DMEM; Gibco BRL, Gaithersburg, Md., USA). Due to the nature of the cells, cells at passages 2 to 5 were used for all experiments. The human hair dermal papilla cells were dispensed into 24-well plates to 1×10^5 cells/well, and then cultured for 24 hours in an incubator at 37° C., 5% CO2 so that the cells are stabilized. Treatment with samples at respective concentrations (0, 10, 20, 50, 100, 200, 400 μg/ml) was performed and culture was performed for 24 hours. Then, treatment with 100 ul of 3-(4,5-dimethylthiazol-2-yl)-2,5-diphenyltetrazolium bromide (MTT; Sigma Aldrich, St. Louis, USA) reagent at a concentration of […] was performed and culture was performed again for 4 hours. After removing the medium, the precipitate (formazan) was dissolved in DMSO and the absorbance was measured at a wavelength of 540 nm. A proliferation rate thereof was evaluated based on the absorbance of a control group containing only DMSO.
In general terms: Tetrazolium dyes change colour on reduction, which living cells bring about.

Series [2] relates to Cyc-D. Nature of the series: RT-PCR of Cyc-D mRNA in human hair dermal papilla cells. Conditions: 20 μM, 24 hours. As to the method: (§1) In the present invention, in order to identify activity of alpha-irone on human hair dermal papilla cells (DPCs), when the DPCs reached 70% to 80% confluency, treatment with alpha-irone at 20 μM was performed, and then culture was performed under a condition of 5% CO2 and 37° C. 24 hours after the treatment, the cells were collected and total RNA was extracted with Trizol Reagent (Gibco BRL, USA). The total RNA was quantified by absorbance measurement at 260 nm.
(§2) After isolation of RNA, cDNA was synthesized by performing reverse transcription using oligo dT primers and SuperScript reverse transcriptase (GIBCOBRL, Gaithersburg, Md., USA). PCR was performed using, as a template, cDNA obtained through reverse transcription and using, as primers, 5′ and 3′ flanking sequences of the gene's cDNA to be amplified. Here, required primers were obtained by making a request for synthesis with a company specializing in primer manufacturing (BIONEER CORPORATION, Korea) and used. To a mixture obtained by mixing of 5 μl of 10× reaction buffer [100 mM KCL, 20 mM Tris-HCl (pH 8.0), 2.5 mM MgCl2], 4 μl of 10 mM dNTP, and 1 μl each of 0.2 μM sense and antisense primers, were added 2 μl of the completed cDNA reaction mixture and 2.5 unit of Taq polymerase (Takara, Japan). Then, the volume was adjusted with 50 μl of distilled water, and PCR was performed using a PCR instrument. […]

The subject of series [3] is cAMP. Nature of the series: cAMP ELISA in human hair dermal papilla cells. The settings on record: 20 μM, 24 hours, vs DMSO. The method, then: (§3) Human hair dermal papilla cells were purchased from PromoCell GmbH (Heidelberg, Germany). The human hair dermal papilla cells were cultured in an incubator at 37° C., 5% CO2 using HFDPC medium (PromoCell, Germany) with fetal bovine serum (FBS) and Dulbecco's modified Eagle's medium (DMEM; Gibco BRL, Gaithersburg, Md., USA). Due to the nature of the cells, cells at passages 2 to 5 were used for all experiments. The human hair dermal papilla cells were dispensed into 12-well plates to 3×10^4 cells/well, and then the culture solutions were treated with alpha-irone at 20 μM. DMSO was used as a negative control group. The alpha-irone-treated culture solutions were collected after 24 hours, and experiments were conducted using human VEGF ELISA Kit (Enzo Life Sciences, NY, USA), human IGF-1 ELISA kit (Enzo Life Sciences, NY, USA), and cAMP complete ELISA kit (Enzo Life Sciences, NY, USA), respectively, according to the manufacturers' protocol.
Background: ELISA stands for enzyme-linked immunosorbent assay.

The subject of series [4] is β-catenin. Nature of the series: Western blot of β-catenin in human hair dermal papilla cells. Conditions: 20 μM. As to the method:
(§4) The […] of human hair dermal papilla cells, obtained by performing treatment with alpha-irone at 20 μM and performing culture, was homogenized with a lysis buffer, and then centrifuged at 13,000×g for 20 minutes at 4° C. Protein quantification was performed by Bradford assay. 40 μg of the protein was electrophoresed on 10% SDS polyacrylamide gel and then transferred to nitrocellulose membranes. The protein was allowed to react with each of PKA Cα, β-catenin, β-actin, and GAPDH antibody (Cell Signaling Technology, Danvers, Mass., USA). Each protein's signal was visualized with a chemiluminescent detection system (Amersham), and then the band's thickness was quantified using the Quantity One Analysis Software (Bio-Rad Laboratories).
In general terms: In western blotting, separated proteins are transferred to a membrane and probed.

Series [5] deals with VEGF. Kind of series: VEGF ELISA of culture solution of human hair dermal papilla cells. The settings on record: 20 μM, 24 hours, vs DMSO. As to the method: as §3
Series [6] relates to IGF-1. Nature of the series: IGF-1 ELISA of culture solution of human hair dermal papilla cells. The settings on record: 20 μM, 24 hours, vs DMSO. The method, then: as §3
Series [7] deals with IGF. Kind of series: RT-PCR of IGF-1 mRNA in human hair dermal papilla cells. The settings on record: 20 μM, 24 hours. As to the method:
as §1, §2

Series [8] deals with PKA Cα. Nature of the series: Western blot of PKA Cα in human hair dermal papilla cells. Conditions: 20 μM. As to the method:
as §4

In series [9] the test system is VEGF. Kind of series: RT-PCR of VEGF mRNA in human hair dermal papilla cells. The settings on record: 20 μM, 24 hours. The method, then:
as §1, §2

Series [10] deals with LEF. Kind of series: RT-PCR of LEF mRNA in human hair dermal papilla cells. The settings on record: 20 μM, 24 hours. As to the method:
as §1, §2

As to `CC(=O)/C=C/C1C(C)=CCC(C)C1(C)C` (stereo not drawn) [alpha-irone, (E)-4-(2,5,6,6-tetramethylcyclohex-2-en-1-yl)but-3-en-2-one], the “cell viability (MTT assay)” value in series [1] (24 hours culture, up to a concentration of 400 μg/ml, vs DMSO control) is recorded as “did not affect the cell viability”. Also, the results for the “increase of proliferation rate” value in series [1] (alpha-irone 10 μM), in [1] (alpha-irone 20 μM) and in [1] (alpha-irone 50 μM) were 10.6%, 37% and 28%, respectively. Moreover, the “increase in mRNA expression of Cyc-D” value in series [2] was determined as 250%. For the same compound, the “increase in cAMP concentration” value in series [3] is 51%. Further, the “increase in expression of β-catenin protein in the cell nucleus” value in series [4] is 38%. Moreover, in series [5], the “increase in concentration of VEGF” value came out at 27%. For the same compound, the “increase in concentration of IGF-1” value in series [6] is on record as 18%. In series [7], the “increase in mRNA expression of IGF” value is on record as 217%. In series [8], the “increase in expression of PKA Cα protein” value is reported as 52%. The “increase in mRNA expression of VEGF” value in series [9] is reported as 247%. The “increase in mRNA expression of LEF” value in series [10] is recorded as 348%.

The values above are taken from patent publication US11246813B2, “Composition for preventing hair loss or promoting hair development, comprising irone as active ingredient” (INDUSTRY-ACADEMIC COOPERATION FOUNDATION, YONSEI UNIVERSITY, priority 2017, dated 2022).
